Results on 3 molecules are retold here after article PMC4719211, “Comparative Pharmacokinetics of three major bioactive components in rats after oral administration of Typhae Pollen-Trogopterus Feces drug pair before and after compatibility” (DARU Journal of Pharmaceutical Sciences, 2016).

This series can be described thus: Pharmacokinetic study in rats after oral administration of Typhae Pollen / Typhae Pollen-Trogopterus Feces decoctions (plasma, UPLC-TQ/MS). As to conditions: n = 6, noncompartment model; for Cmax / Tmax / half-life: female, Sprague-Dawley, rat, po; for AUC0~t: rat plasma. In kind it is in vivo, female Sprague–Dawley (SD) rats. The procedure: An ACQUITY UPLC BEH C18 column (2.1 mm × 100 mm, 1.7 μm, Waters Corp., Milford, MA, USA) was applied and the column temperature was maintained at 35 °C. The mobile phase was composed of A (0.1 % aqueous formic acid) and B (acetonitrile) using a gradient elution of 5–10 % B at 0–1 min, 10–30 % B at 1–6 min, 30–40 % B at 6–7 min, 40–95 % B at 7–8 min, 95–5 % B at 8–9 min, […] with a flow rate set at 0.4 mL/min. The auto-sampler was conditioned at 4 °C and the injection volume was 5 μL.
Mass spectrometry detection was performed by using a Xevo Triple Quadrupole MS (Waters Corp., Milford, MA) equipped with an electrospray ionization source (ESI). The ESI source was set in positive ionization mode. The scanning mode was set multiple reaction monitoring (MRM) mode. Parameters set in the source were as follows: the capillary voltage at 1 kV; sampling cone voltage of 30 V; source temperature […]; desolvation temperature 550 °C; dwell time was automatically set by MassLynx (Waters Corp., Milford, MA, USA).
A 200 μL aliquot of plasma sample was added with 10 μL diphenhydramine hydrochloride working solution and 600 μL of methanol. After vortex for 2 min and centrifugation at 13,000 rpm for 10 min, the supernatant was transferred to another 1.5 mL tube and concentrated in the centrifuge enrichment apparatus at 37 °C.
Finally, each residue was reconstituted in 200 μL 70 % methanol, then vortexed for 3 min and centrifuged at 13,000 rpm for 10 min. 5 μL of supernatant was injected into the UPLC-TQ/MS system for analysis.
All experiments were performed on female Sprague–Dawley (SD) rats, weighing 220–250 g, obtained from Shanghai Slac Laboratory Animal Co., Ltd. (Shanghai, China). They were kept in plastic cages at 22 ± 2 °C and a relative humidity of 50–65 %, with free access to pellet food and water on a 12 h light/dark cycle. Animal welfare and experimental procedures strictly conformed to the Guide for the Care and Use of Laboratory Animals and the related ethics regulations of Nanjing University of Chinese Medicine.
For pharmacokinetic studies, the SD rats were divided into four groups randomly (n = 6 per group), and housed with unlimited access to food before the experiment while water available. Each group except the control group was oral administration of TP (CN) single drug decoction, TP-TF co-decoction (CM) and TP-TF mixed decoction (CB) at a dosage of 5 g/kg, 10 g/kg, 10 g/kg body weight, respectively. Blood samples (0.5 mL) were collected at certain time points and placed at a 1.5 mL tube before oral (0 min) and after oral (5, 15, 30, 45, 60, 120, 240, 360, 480, 720 and 1440 min) administration. Afterwards all the blood samples were centrifuged at 13,000 rpm for 10 min and stored at −80 °C until analysis.
The mean plasma concentration-time profiles of typhaneoside, vanillic acid and p-coumaric acid were determined after oral administration with different compatibility of Typhae Pollen-Trogopterus Feces drug pair in rats, the concentration-time curves are presents in Fig. 3, and the noncompartment model pharmacokinetic parameters including maximum plasma concentration (Cmax), time to reach the maximum concentrations (Tmax), half-time (T1/2), area under concentration-time curve (AUC 0~t) are summarized in Table 2.

[1] abbreviates: plasma, 5 g/kg, oral TP single drug decoction (CN).
The mark [2] stands for this setting: plasma, 10 g/kg, oral TP-TF co-decoction (CM).
Where [3] appears, read: plasma, 10 g/kg, oral TP-TF mixed decoction (CB).
Setting [4] is: oral TP single drug decoction (CN), 5 g/kg.
Where [5] appears, read: oral TP-TF co-decoction (CM), 10 g/kg.
Where [6] appears, read: oral TP-TF mixed decoction (CB), 10 g/kg.
[7] abbreviates: in vivo, 5 g/kg, oral TP single drug decoction (CN).
Where [8] appears, read: in vivo, 10 g/kg, oral TP-TF co-decoction (CM).
The mark [9] stands for this setting: in vivo, 10 g/kg, oral TP-TF mixed decoction (CB).

Each structure is given as a SMILES string.

By Cmax is commonly meant the peak of the concentration-time curve. The term Tmax denotes the time at which the peak concentration occurs. The term half-life denotes the time in which the quantity being followed falls by half. Low values mean rapid decline, high ones slow decline. Take `O=C(O)/C=C/c1ccc(O)cc1` [P-coumaric acid, p-coumaric acid]: the Cmax was determined as 4900 ± 1890 ng/mL under setting [1], 5110 ± 3670 ng/mL under setting [2] and 4190 ± 844 ng/mL under setting [3]. The Tmax runs as follows: under setting [1], 1.08 ± 1.67 h; under setting [2], 1.42 ± 1.39 h; under setting [3], 0.46 ± 0.4 h. The same molecule had a half-life under setting [1] of 220 ± 109 min, a half-life under setting [2] of 605 ± 472 min and a half-life under setting [3] of 605 ± 614 min. Moreover, the “AUC0~t” value under setting [4] is 36881.01 ± 25783.25 ng/h/mL, the “AUC0~t” value under setting [5] turned out to be 41512.56 ± 41763.28 ng/h/mL and the “AUC0~t” value under setting [6] is 17689.11 ± 3882.21 ng/h/mL.

`COc1cc(-c2oc3cc(O)cc(O)c3c(=O)c2O[C@@H]2O[C@H](CO[C@@H]3O[C@@H](C)[C@H](O)[C@@H](O)[C@H]3O)[C@@H](O)[C@H](O)[C@H]2O[C@@H]2O[C@@H](C)[C@H](O)[C@@H](O)[C@H]2O)ccc1O` [Typhaneoside, typhaneoside]: the peak concentration (Cmax) was found to be 76.4 ± 53.2 ng/mL under setting [7], 371 ± 316 ng/mL under setting [8] and 214 ± 73.7 ng/mL under setting [9]. Besides, the time of peak concentration (Tmax) turned out to be 2.95 ± 2.88 h under setting [7], 0.24 ± 0.15 h under setting [8] and 0.21 ± 0.08 h under setting [9]. The half-life was 201 ± 155 min under setting [7], 115 ± 75.6 min under setting [8] and 82.2 ± 32.4 min under setting [9]. Besides, the “AUC0~t” value is recorded as 268.31 ± 167.71 ng/h/mL under setting [4], 333.46 ± 191.84 ng/h/mL under setting [5] and 275.62 ± 206.06 ng/h/mL under setting [6].

As for `COc1cc(C(=O)O)ccc1O` [Vanillic acid, vanillic acid], the Cmax runs as follows: under setting [1], 2210 ± 1190 ng/mL; under setting [2], 3870 ± 2530 ng/mL; under setting [3], 1450 ± 501 ng/mL. The time of peak concentration (Tmax) was 1.25 ± 0.71 h under setting [1], 1.47 ± 3.2 h under setting [2] and 0.17 ± 0.09 h under setting [3]. The same molecule showed a half-life under setting [1] of 221 ± 52.2 min, a half-life under setting [2] of 675 ± 817 min and a half-life under setting [3] of 533 ± 226 min. Also, the “AUC0~t” value runs as follows: under setting [4], 10445.53 ± 4148.68 ng/h/mL; under setting [5], 14137.57 ± 4540.37 ng/h/mL; under setting [6], 6193.78 ± 4499.17 ng/h/mL.
